According to paper PMC8424217 (The Journal of Biological Chemistry, 2021):
Peptide text beside a SMILES is read from it. * marks the point of attachment. Palmitoyl = CCCCCCCCCCCCCCCC(=O)*

Legend:
hUT [1] = biological target: T1, hUT (Homo sapiens, UniProt Q9UKP6); test: ERK1/2 phosphorylation, western blot, CHO-hUT cells; assay type: cell-based; set-up: expressed in transfected cells; host or cells: CHO-K1 cells stably expressing hUT (gift from H. Vaudry and C. Dubessy, University of Rouen); details: for EC50 / effect of AG1478 (EGFR inhibitor) on ERK1/2 phosphorylation induced by the peptide / effect of PTX on ERK1/2 phosphorylation induced by the peptide / effect of U73122 (PLC inhibitor) on ERK1/2 phosphorylation induced by the peptide / time of second peak of ERK1/2 phosphorylation / time of maximal ERK1/2 phosphorylation: CHO-hUT; for EC50: 5 min stimulation, mean ± SEM of at least three independent experiments in triplicate, read-out: ERK1/2 phosphorylation pEC50 (converted); for effect of AG1478 (EGFR inhibitor) on ERK1/2 phosphorylation induced by the peptide: AG1478 5 μM 30 min pretreatment; for effect of AG1478 (EGFR inhibitor) on ERK1/2 phosphorylation induced by the peptide / effect of PTX on ERK1/2 phosphorylation induced by the peptide / effect of U73122 (PLC inhibitor) on ERK1/2 phosphorylation induced by the peptide: pepducin 10^−6 M, 5 min, n = 3; for effect of PTX on ERK1/2 phosphorylation induced by the peptide: PTX 200 ng/ml 24 h pretreatment; for effect of U73122 (PLC inhibitor) on ERK1/2 phosphorylation induced by the peptide: U73122 1 μM 60 min pretreatment; for time of second peak of ERK1/2 phosphorylation / time of maximal ERK1/2 phosphorylation: pepducins 10^−6 M; for time of maximal ERK1/2 phosphorylation: hUII 10^−7 M
T1 sequence (Q9UKP6 1-389): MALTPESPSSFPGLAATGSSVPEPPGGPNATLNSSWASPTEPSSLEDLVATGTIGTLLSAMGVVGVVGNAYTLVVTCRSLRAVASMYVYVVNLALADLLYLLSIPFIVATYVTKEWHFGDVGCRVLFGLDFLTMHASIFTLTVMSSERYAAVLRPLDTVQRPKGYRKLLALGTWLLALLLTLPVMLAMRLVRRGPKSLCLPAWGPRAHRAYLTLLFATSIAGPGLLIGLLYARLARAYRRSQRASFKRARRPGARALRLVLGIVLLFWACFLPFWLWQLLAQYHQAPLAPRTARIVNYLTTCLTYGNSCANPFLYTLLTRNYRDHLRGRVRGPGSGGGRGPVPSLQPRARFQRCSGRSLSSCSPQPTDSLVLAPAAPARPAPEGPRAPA
Experimental: Figure 3 IP1production (A and B) and ERK1/2phosphorylation (C and D) kinetics and concentration dependence following hUT activation. IP1 production was evaluated using the IP-One terbium immunoassay kits while ERK1/2 phosphorylation was measured by western blot in CHO-K1 cells stably expressing hUT. […] Each curve represents the mean ± SEM of at least three independent experiments performed in triplicate.
ERK1/2 phosphorylation was measured by western blot. […] Quantification of ERK1/2 phosphorylation level was performed in three independent experiments done in triplicate (mean ± SEM, n = 3, ∗∗∗p < 0.001, ∗∗p < 0.01, or ∗p < 0.05, versus control).
(§1) CHO cells stably expressing hUT (CHO-hUT; gift from Drs H. Vaudry et C. Dubessy, University of Rouen, France) were grown in 12-well plates to 70–80% confluence and starved for 6 h in a serum-free medium. […] Briefly, HEK 293-hUT cells, grown in 12-well plates to 70–80% confluence, were starved for 6 h in a serum-free medium. […] Cells were then rinsed twice with ice-cold PBS and homogenized in 0.5 ml of lysis buffer (20 mM Tris, 150 mM NaCl, 1 mM EDTA, 1 mM EGTA, 1% Triton X-100, 2.5 mM sodium pyrophosphate, 1 mM β-glycerolphosphate, 1 mM Na3VO4, 1 μg mL^−1 leupeptin, 1 mM PMSF, 1 mM DTT) at 4 °C. Insoluble material was removed by centrifugation at 12,000 rpm for 30 min. The extract was treated with Laemmli sample buffer and heated for 5 min at 95 °C. Aliquots were assayed for protein concentration (BioRad) and an equal amount of total protein was subjected to 12% SDS–PAGE, followed by transfer to a nitrocellulose membrane. The membrane was blocked and then probed with primary antibody (phospho-p44/42 MAPK) at the optimal dilution (1/2000) with gentle agitation overnight at 4 °C. After washing with TTBS, membranes were then incubated with secondary antibody, conjugated with horseradish peroxidase (anti-rabbit HRP) diluted in TBST containing 5% skim milk (w/v) for 1 h at room temperature. Immunoreactive species were visualized by enhanced chemiluminescence using X-ray film and Thermo Scientific SuperSignal chemiluminescent substrates according to the manufacturer's instructions. Films were digitized and the intensity of the immunoreactive bands determined using Quantity One software from Bio-Rad.

hUT [2] = biological target: T1, hUT; test: ERK1/2 phosphorylation, western blot, HEK 293-hUT cells; assay type: cell-based; set-up: expressed in transfected cells; host or cells: CHO-K1 cells stably expressing hUT (gift from H. Vaudry and C. Dubessy, University of Rouen); details: for effect of YM254890 (Gq inhibitor) on ERK1/2 phosphorylation induced by the peptide: YM254890 100 nM 1 h pretreatment, hUT-Pep2 at 5 min, [Trp^1, Leu^2]hUT-Pep3 at 5 and 10 min, p < 0.05; for effect of YM254890 (Gq inhibitor) on ERK1/2 phosphorylation induced by the peptide / time of maximal ERK1/2 phosphorylation (for [Trp^1, Leu^2]hUT-Pep3: time to reach efficacy similar to hUII): pepducins 10^−5 M; for time of maximal ERK1/2 phosphorylation (for [Trp^1, Leu^2]hUT-Pep3: time to reach efficacy similar to hUII): hUII 10^−7 M
Experimental: Curves represent mean ± SEM of three independent kinetic experiments performed in triplicate.
as §1

rat thoracic aorta rings = biological target: T2, rat thoracic aorta rings (Rattus norvegicus, UniProt P49684); test: Rat aortic ring contraction (agonist); details: for contraction at 10 μM: n = 5; for contraction pEC50: n = 22 (hUII, URP), n = 5 (pepducins)
T2 sequence (P49684 1-386): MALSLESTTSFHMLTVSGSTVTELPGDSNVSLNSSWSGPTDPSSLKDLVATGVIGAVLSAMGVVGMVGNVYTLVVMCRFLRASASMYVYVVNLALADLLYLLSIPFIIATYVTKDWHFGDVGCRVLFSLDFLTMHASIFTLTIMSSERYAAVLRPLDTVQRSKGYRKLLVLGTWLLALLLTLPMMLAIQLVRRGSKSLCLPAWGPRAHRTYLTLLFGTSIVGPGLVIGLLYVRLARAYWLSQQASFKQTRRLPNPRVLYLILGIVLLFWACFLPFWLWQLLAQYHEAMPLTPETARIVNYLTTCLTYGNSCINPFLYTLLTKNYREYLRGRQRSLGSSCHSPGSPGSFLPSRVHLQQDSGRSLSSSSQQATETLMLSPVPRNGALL
Experimental: Each replicate (n) was conducted on tissue obtained from at least three different animals. Data represent mean ± SEM.
Adult male Sprague-Dawley rats (Charles-River) weighing 250–300 g were housed in cages under controlled illumination (12:12 h light–dark cycle), humidity, and temperature (21–23 °C) and had free access to tap water and rat chow. All experimental procedures were performed in accordance with regulations and ethical guidelines from the Canadian Council for the Care of Laboratory Animals and received approvals of the institutional animal care and use committee of the Institut National de la Recherche Scientifique—Centre Armand-Frappier Santé Biotechnologie. As previously described ([17], [18]), the thoracic aorta was cleared of surrounding tissue and then excised from the aortic arch to the diaphragm. Conjunctive tissues were next removed from the thoracic aorta and the vessels were divided into five rings of 4 mm. The endothelium of each aortic ring was removed by gently rubbing the vessel intimal surface. Aortic rings were then placed in a 5 ml organ bath filled with oxygenated normal Krebs–Henseleit buffer. Eighty microliters of a 2.5 M potassium chloride solution (40 mM final concentration) was used to evaluate maximal contractile responses of each vessel. […] Cumulative concentration–response curves to synthetic peptides were obtained by increasing the concentration of each peptide in the remaining organ chambers (10^−11–10^−5 M).

[3] = percentage of contraction induced by 40 mM KCl

Which Emax (hUT [1]) does the source give for `CCCCCCCCCCCCCCCC(=O)N[C@@H](Cc1c[nH]c2ccccc12)C(=O)N[C@@H](CC(C)C)C(=O)N[C@@H](CO)C(=O)N[C@@H](CCC(N)=O)C(=O)N[C@@H](CCCNC(=N)N)C(=O)N[C@@H](C)C(=O)N[C@@H](CO)C(=O)N[C@@H](Cc1ccccc1)C(=O)N[C@@H](CCCCN)C(=O)N[C@@H](CCCNC(=N)N)C(=O)N[C@@H](C)C(=O)N[C@@H](CCCNC(=N)N)C(=O)N[C@@H](CCCNC(=N)N)C(N)=O` [[Trp^1, Leu^2]hUT-Pep3] (Palmitoyl-WLSQRASFKRARR-NH2) here?
Its Emax is 56 ± 2%.

And the EC50 (hUT [1])?
The EC50 was 200 nM.

What about the “effect of AG1478 (EGFR inhibitor) on ERK1/2 phosphorylation induced by the peptide” value (hUT [1]) of the same compound?
The value was “significantly reduced the ability of both hUT-derived pepducins to induce ERK1/2 phosphorylation”.

And the “effect of PTX on ERK1/2 phosphorylation induced by the peptide” value (“effect of PTX” for short) (hUT [1])?
Its value is “completely prevented”.

And the “effect of U73122 (PLC inhibitor) on ERK1/2 phosphorylation induced by the peptide” value (hUT [1])?
Its value is “completely prevented”.

And the “time of second peak of ERK1/2 phosphorylation” value (hUT [1])?
The value was 60 min.

And the “time of maximal ERK1/2 phosphorylation” value (hUT [1])?
Its value is 5 min.

What about the “effect of YM254890 (Gq inhibitor) on ERK1/2 phosphorylation induced by the peptide” value (hUT [2]) of the same compound?
The value was “modest, but significant, inhibitory effect”.

And the “duration of ERK1/2 activation in presence of YM254890” value (hUT [2]; YM254890 100 nM, 0-20 min)?
Its value is “this activation is maintained and did not decrease over the studied period of time”.

What about the “time of maximal ERK1/2 phosphorylation (for [Trp^1, Leu^2]hUT-Pep3: time to reach efficacy similar to hUII)” value (hUT [2]) of the same compound?
Its value is 10 min.

What about the “contraction at 10 μM” value (rat thoracic aorta rings; [3]) of the same compound?
Its value is 16% @ 10 μM.

What about the “contraction pEC50” value (rat thoracic aorta rings; mean ± SEM) of the same compound?
The value was <5.

For `CC(C)[C@H](NC(=O)[C@@H]1CSSC[C@H](NC(=O)[C@H](CC(=O)O)NC(=O)[C@@H]2CCCN2C(=O)[C@@H](NC(=O)[C@@H](N)CCC(=O)O)[C@@H](C)O)C(=O)N[C@@H](Cc2ccccc2)C(=O)N[C@@H](Cc2c[nH]c3ccccc23)C(=O)N[C@@H](CCCCN)C(=O)N[C@@H](Cc2ccc(O)cc2)C(=O)N1)C(=O)O` [hUII, urotensin II, reference compound], which Emax (hUT [1]) is on record?
Its Emax is 102 ± 2%.

And the “effect of PTX” value (hUT [1])?
The value was “substantially reduced, or even suppressed”.

What about the “time of maximal ERK1/2 phosphorylation” value (hUT [1]) of the same compound?
Its value is 5 min.

And the “time of maximal ERK1/2 phosphorylation (for [Trp^1, Leu^2]hUT-Pep3: time to reach efficacy similar to hUII)” value (hUT [2])?
The value was 5 min.

What about the “contraction pEC50” value (rat thoracic aorta rings; mean ± SEM) of the same compound?
The value was 8.64 ± 0.09.

What about the Emax (rat thoracic aorta rings; percentage of contraction induced by 40 mM KCl, mean ± SEM, n = 22) of the same compound?
The Emax was 102 ± 3%.

For `CCCCCCCCCCCCCCCC(=O)N[C@@H](CCCNC(=N)N)C(=O)N1CCC[C@H]1C(=O)N[C@@H](CC(C)C)C(=O)N[C@@H](CC(=O)O)C(=O)N[C@H](C(=O)N[C@H](C(=O)N[C@@H](CCC(N)=O)C(=O)N[C@@H](CCCNC(=N)N)C(=O)N1CCC[C@H]1C(=O)N[C@@H](CCCCN)C(=O)NCC(=O)N[C@@H](Cc1ccc(O)cc1)C(N)=O)C(C)C)[C@@H](C)O` [hUT-Pep2] (Palmitoyl-RPLDTVQRPKGY-NH2), which Emax (hUT [1]) is on record?
Its Emax is 34 ± 2%.

And the EC50 (hUT [1])?
Its EC50 is 55 nM.

What about the “effect of AG1478 (EGFR inhibitor) on ERK1/2 phosphorylation induced by the peptide” value (hUT [1]) of the same compound?
Its value is “significantly reduced the ability of both hUT-derived pepducins to induce ERK1/2 phosphorylation”.

And the “effect of PTX” value (hUT [1])?
The value was “unaffected by PTX treatment”.

What about the “effect of U73122 (PLC inhibitor) on ERK1/2 phosphorylation induced by the peptide” value (hUT [1]) of the same compound?
The value was “only partially affected by the PLC inhibitor”.

What about the “time of second peak of ERK1/2 phosphorylation” value (hUT [1]) of the same compound?
Its value is “a similar pattern was not observed for hUT-Pep2”.

What about the “time of maximal ERK1/2 phosphorylation” value (hUT [1]) of the same compound?
The value was 5 min.

And the “effect of YM254890 (Gq inhibitor) on ERK1/2 phosphorylation induced by the peptide” value (hUT [2])?
The value was “modest, but significant, inhibitory effect”.

What about the “time of maximal ERK1/2 phosphorylation (for [Trp^1, Leu^2]hUT-Pep3: time to reach efficacy similar to hUII)” value (hUT [2]) of the same compound?
Its value is 5 min.

And the “contraction at 10 μM” value (rat thoracic aorta rings; [3])?
The value was 7% @ 10 μM.

What about the “contraction pEC50” value (rat thoracic aorta rings; mean ± SEM) of the same compound?
Its value is <5.
